# Entries after “also recorded” stand apart in the source; their conditions may differ.
# Assays:
# PARP3 or PARPs 6–16 = test: 32P-NAD+ auto-PARylation selectivity screen; type: biochemical, human; settings: 32P-NAD+ auto-PARylation screen
# Procedure: Samples were analyzed via phosphorimaging.
# [1] = tested on: DNA repair mutant DT40 cell lines; test: Proliferation assay in panel of isogenic DNA repair mutant DT40 cell lines (XTT); type: cell-based, avian
# [2] = tested on: B16-F10 mouse melanoma isografts; test: B16-F10 mouse melanoma isograft model, combination with TMZ; type: in vivo
# Procedure: (§1) All studies were performed according to IACUC approved protocols. The general health of mice was monitored daily.
# TMZ combination in B16-F10 isograft model: female C57BL/6 mice were inoculated subcutaneously with B16-F10 cells (2 × 10^5). Following randomization by body weight, drug treatment was initiated 1 day post-inoculation. […] TMZ was administered daily on days 1 to 5 at 50 mg/kg as a single agent or in combination. […] The control group was treated with vehicle (0.5% methyl cellulose in water). E7449 or vehicle was administered first and when dosing of all animals was complete TMZ was administered to animals receiving the combination.
# [3] = tested on: MX-1 human breast cancer xenografts; type: in vivo
# Procedure: (§2) All studies were performed according to IACUC approved protocols. The general health of mice was monitored daily. Tumor volume was determined by caliper measurements (mm), using the formula (l x w^2)/2 = mm^3, where l and w refer to the larger and smaller perpendicular dimensions collected at each measurement. Tumor dimensions were recorded twice per week starting when tumors reached an approximate size of 100 to 150 mm^3. Body weights were recorded twice per week and relative body weight was calculated as follows: Relative body weight = (body weight on day of measurement/body weight on first day of treatment).
# Carboplatin combination in MX-1 orthotopic xenografts: female nude mice were implanted with MX-1 cells (0.5 × 10^6) in the thoracic mammary fat pad. Treatment started on day 3 when the average tumor size was approximately 50 mm^3. Carboplatin was administered as a single intravenous dose at 60 mg/kg on day 3 or 4.
# [4] = tested on: MDA-MB-436 human breast cancer xenografts; test: MDA-MB-436 subcutaneous xenograft model, single agent; type: in vivo, mouse
# Procedure: as §1
# [5] = tested on: PARP activity in MDA-MB-436 tumor tissue; test: Pharmacodynamic PARP inhibition (PAR ELISA) in MDA-MB-436 tumor lysates; type: in vivo, mouse
# Procedure: Control group (10 mice) were treated with vehicle (0.5% methyl cellulose in water). Mice were euthanized and tumors were harvested at 1, 6, 12, 24 and 36 hours post treatment (5 mice per treatment per time point). Individual tumors were removed and flash frozen in liquid nitrogen for PAR analysis. PARP inhibition was also evaluated in tumors from NCI-H460 human lung cancer subcutaneous xenografts. Control group animals (24 mice) were treated with vehicle (0.5% methyl cellulose). […] Mice were euthanized and tumors were harvested at 0.25, 1, 6, 12, 24 and 36 hours post-treatment. PAR levels were determined by ELISA using the procedure provided by Trevigen and comparing to a PAR standard curve. Protein concentration of tumor lysates was determined using the BCA assay (Thermo Scientific). Results were converted from pg PAR/assay well to ng PAR/mg protein. Data was pooled from multiple experiments. The percent of control for each time point was calculated by using an average of all control replicates from that experiment.
# [6] = tested on: NCI-H460 human lung cancer xenografts; test: NCI-H460 lung cancer xenograft model, antitumor activity; type: in vivo, mouse
# SW480 cells [7] = test: Western blot of Wnt/β-catenin pathway proteins in SW480 cells; type: cell-based, human; settings: 10 μmol/L, 24 h
# Procedure: (§3) SW480, DLD-1 (Wnt-dependent) or RKO (Wnt-independent) cells were plated in 6-well plates and incubated overnight. Cells were treated with E7449, olaparib or XAV939 and incubated for various time periods prior to processing by SDS PAGE and western blot analysis. […] Following binding of appropriate secondary antibodies labeled with IRDye® (LI-COR), image analysis was performed with Image Studio software for the LI-COR Odyssey system (version 2.1.10).
# DLD-1 cells [8] = test: Western blot of Wnt/β-catenin pathway proteins in DLD-1 cells; type: cell-based, human; settings: 24 h
# Procedure: as §3
# SW480 cells [9] = test: Gene expression profiling of Wnt-related genes (TLDA qPCR) in SW480 cells; type: cell-based, human; settings: 30 μmol/L, 72 h
# Procedure: (§4) Gene expression profiling was performed using a custom designed TaqMan® low density array (TLDA). Total RNA was isolated from cell lines using RNeasy Mini Kit (Qiagen) and from xenograft tumor FFPE tissue using RecoverAll Total Nucleic Acid Isolation (Ambion). Human and mouse, real-time qPCR TLDAs (384-well micro fluidic card) were designed with genes selected based on their involvement in Wnt signalling (see supplementary Tables 2 and 3 for lists of genes on TLDAs). cDNA was generated from total RNA using High Capacity cDNA Reverse Transcription kit (Life Technologies) or SuperScript® VILO™ Master Mix (Life Technologies). 100 ng cDNA was combined with TaqMan® Gene Expression Master Mix (Life Technologies) for the cell lines and TaqMan® Advanced FAST Master Mix (Life Technologies) for the xenograft tissue for each port (in duplicate). TLDAs were run based on recommended cycling times for each master mix. Ct values were calculated and imported into GeneData Analyst for further analysis. To calculate the ΔCts, gene expression was normalized to several housekeeping genes. Relative fold change was calculated by comparison to the DMSO or vehicle-treated controls for each sample. A student's t-test was used to calculate P-values and hierarchical clustering used Manhattan distance and complete linkage plotting of selected significant genes to generate heat maps.
# DLD-1 cells [10] = test: Gene expression profiling of Wnt-related genes (TLDA qPCR) in DLD-1 cells; type: cell-based, human; settings: 30 μmol/L, 72 h
# Procedure: as §4
# [11] = tested on: Wnt1 (int-1) mammary tumors; test: Wnt1 subcutaneous mammary tumor model
# Procedure: as §2
# Tumor pieces cut to approximately 2 mm^3 in size were injected subcutaneously in female nude mice. Treatment was initiated approximately 9–10 days post-implantation of mice.
# Wnt1 model tumors = test: Gene expression of Wnt-related genes in Wnt1 model tumors (mouse TLDA); type: in vivo; settings: 7 days of drug treatment
# Procedure: as §4
# [12] = set-up: method as in PMID 22246237; settings: cited from earlier work
# [13] = E7449 10, 30, 100 mg/kg + TMZ 50 mg/kg
structure (smiles),measurement,setting,value
"O=c1[nH]nc2c3c(cccc13)N=C(CN1Cc3ccccc3C1)N2 [E7449, 8-(isoindolin-2-ylmethyl)-2,9-dihydro-3H-pyridazino[3,4,5-de]quinazolin-3-one]",inhibitory activity on PARP3 or PARPs 6–16,PARP3 or PARPs 6–16,Significant inhibitory activity was not observed
same,sensitivity of cell lines deficient in NHEJ repair,"[1]; KU70, PKCS, LIGIV deficient DT40",Resistance
same,effect of loss of POLQ on sensitivity,[1]; POLQ deficient DT40,no effect
same,sensitivity of DT40 cells lacking PARP expression,[1]; versus wild type DT40,significantly resistant
same,"growth of subcutaneous tumors, single agent","[2]; E7449 100 mg/kg or TMZ 50 mg/kg, oral once daily",moderately inhibited
same,"animal lethality, combination with TMZ",[2]; [13],No animal lethality occurred
same,"body weight, combination with TMZ",[2]; [13],body weight loss was observed in all 3 combination groups
same,"tumor growth inhibition, combination with TMZ","[2]; E7449 10, 30 and 100 mg/kg + TMZ 50 mg/kg, oral",significantly enhanced tumor growth inhibition
same,tolerability of combination with carboplatin,[3]; E7449 100 mg/kg + carboplatin 60 mg/kg,well tolerated with no signs of toxicity or significant body weight loss
same,"antitumor activity, E7449 started 1 day post-carboplatin",[3]; E7449 100 mg/kg once daily + carboplatin 60 mg/kg i.v.,closely resembled that observed with carboplatin alone
same,"antitumor activity, E7449 simultaneously with or prior to carboplatin",[3]; E7449 100 mg/kg once daily + carboplatin 60 mg/kg i.v. single dose,enhanced the antitumor activity of carboplatin
same,"antitumor activity, single agent","[3]; E7449 100 mg/kg oral once daily, carboplatin single i.v. dose 60 mg/kg",inactive; also recorded: No antitumor activity
same,tolerability,[4]; 30 or 100 mg/kg once daily for 28 days,well-tolerated without any significant body weight loss or deaths
same,"antitumor activity, single agent",[4]; 30 or 100 mg/kg oral once daily for 28 days,statistically significant antitumor activity
same,time of partial rebound of PARP activity,[5]; single dose 30 mg/kg,≤ 12 h
same,duration of significant PARP inhibition in tumor,[5]; single dose 100 mg/kg,at least 12 hours
same,time of recovery of PARP activity to basal levels,[5]; single dose 100 mg/kg,≤ 24 h
same,antitumor activity,[6],No antitumor activity
same,Cyclin D1 protein levels,SW480 cells [7],modest decrease
same,axin2 protein level,SW480 cells [7],significant increase
same,reduction of active (non-phosphorylated) β-catenin level,SW480 cells [7],~ 70%
same,reduction of total β-catenin level,SW480 cells [7],~50%
same,effect on levels of β-catenin,DLD-1 cells [8],robust effect on levels of β-catenin was not observed
same,number of Wnt-related genes with significantly altered expression,SW480 cells [9],30 genes
same,number of Wnt-related genes with significantly altered expression,DLD-1 cells [10],40 genes
same,effect of adding E7449 to E6201 on body weight loss,[11]; E7449 100 mg/kg + E6201 40 mg/kg,did not impact body weight loss
same,"tumor growth, single agent","[11]; E7449 100 mg/kg once daily, Wnt-C59 10 mg/kg once daily, E6201 40 mg/kg i.v. Q4Dx3",did not inhibit tumor growth; also recorded: No antitumor effect
same,"antitumor activity, combination of E7449 and E6201",[11]; E7449 100 mg/kg oral once daily + E6201 40 mg/kg i.v. Q4Dx3,Antitumor activity was enhanced; also recorded: synergistic inhibition of tumor growth
same,"tolerability (body weight loss), single agent","[11]; E7449 100 mg/kg, Wnt-C59 10 mg/kg once daily",well tolerated with minimal toxicity
same,"expression of Wnt-related genes CAR2, FZD9, LEF1, VIL1 in tumors",Wnt1 model tumors,"also altered in tumors from E7449-treated mice, albeit to a lesser extent"
same,brain penetration,[12],brain penetrable
same,oral bioavailability,[12],orally bioavailable
